Literature values as cited in US20180333418A1, “USE OF PAN FGFR INHIBITORS AND METHOD OF IDENTIFYING PATIENTS WITH CANCER ELIGIBLE FOR TREATMENT WITH A PAN FGFR INHIBITOR” (BAYER PHARMA AKTIENGESELLSCHAFT, priority 2014, published 2018).

Assays:
[1] = test system: FGFR1-amplified osteosarcoma cell line G-292; conditions: Guagnano et al.; cited from earlier work
[2] = test system: ovarian cancer cell line A2780; conditions: Guagnano et al.; cited from earlier work

CCN1CCN(c2ccc(Nc3cc(N(C)C(=O)Nc4c(Cl)c(OC)cc(OC)c4Cl)ncn3)cc2)CC1 [BGJ398]
anti-proliferative effects [1]: anti-proliferative effects
sensitivity in vitro towards treatment [2]: sensitive
